Data set [1] deals with CYPIIB1. Nature of the data set: PROD conversion to resorufin by in vitro induced hepatocytes. It counts as cell-based, porcine. On the procedure:
(§1) For comparison, in vitro induced hepatocyte cultures were prepared. Hepatocytes were procured using the method described above but from non-induced pigs and then induced in culture. Cells were plated onto 60 mm tissue culture dishes (Corning, Corning, N.Y.) in Williams' E media supplemented with 1% NBCS (newborn calf serum), 4.5 g/L glucose, 0.5 U/ml bovine insulin, 7 ng/ml glucagon, 7.5 μg/ml hydrocortisone, 10 mM HEPES (Sigma), 20 ng/ml EGF, […] (Life Technologies), 10 IU/ml penicillin and 10 μ/ml streptomycin (BioWhittaker). […]
(§2) To measure increased isozyme activity in both in vivo and in vitro induced cultures compared to non-induced controls, both in vivo induced and in vitro induced cultures from Example 1 were incubated with EROD, MROD, PROD or BROD (Molecular Probes) at 5 μM (in Williams' E media without serum and phenol red). […] Samples were analyzed in a Turner 450 fluorometer at 540ex and 585em nm. Resorufin formation was quantified using a standard curve that was linear from 0.5 to 130 nM and data are expressed as net resorufin gain over background fluorescence. In this assay, conversion of the alkoxyresorufins to resorufin corresponds to an increase in fluorescence such that the ratio of fluorescences, or activity, corresponds directly to the level of P450 activity of a particular set of isoenzymes.

For data set [2], the system named is CYPIIB1. Nature of the data set: Diazepam clearance by in vivo induced hepatocytes. Set-up: species or system porcine. How it is done:
Cells were isolated using a modification of the Seglen method which has been described earlier (Seglen, P., Preparation of isolated rat liver cells, In Meth. in Cell. Bio. (D M Prescott, ed.), vol. 13. Academic Press (NY, N.Y.), 1976.). Briefly, the exposed liver was cannulated and perfused in situ with cold Lactated Ringers (Baxter, Deerfield, Ill.) at 250 ml/minute before excision and transport to the lab. The liver was quickly warmed and perfused with 0.2% EDTA at 37° C. This was followed by perfusion of 1 mg/ml collagenase (Life Technologies, Grand Island, N.Y.) at 37° C. until digestion appeared complete (mean digestion 22±4 min). Further digestion was stopped with the addition of cold HBSS (BioWhittaker, Walkersville, Md.) supplemented with 10% NBCS (Hyclone, Logan, Utah). Undigested tissue and gall bladder were excised and the remainder of the tissue passed through 200 and 100 micron stainless steel sieves (Fisher Scientific, Pittsburgh, Pa.). The cell suspension was washed twice and the cell pellet resuspended in culture media. Viability was determined by Trypan blue exclusion and Calcein AM staining (Molecular Probes, Eugene, Oreg.). Hepatocytes derived from the isolation process following in vivo induction show lower viability when compared to control conditions (77% n=7 versus 89% n=40), yet the cells detoxify xenobiotics at a greater rate. Immediately after isolation, 10^6 cells were assayed for total protein with the BCA kit (Pierce Biochemical, Rockford, Ill.). […]
Diazepam clearance was assayed in the cultures of Example 1 using a method similar to that of Jauregui et al. Xenobiotic induction of P-450 PB-4 (IIB1) and P-450c (IA1) and associated monooxygenase activities in primary cultures of adult rat hepatocytes. […] This reverse phase HPLC run was conducted at a flow rate of 1.0 ml/min through a micro-Bondpak C18 column (Waters) with absorbance set at 254 nm. […]

Data set [3] concerns CYPIA1. Nature of the data set: EROD conversion to resorufin by in vivo induced hepatocytes. The arrangement: species or system porcine. The note with it: for Degree of isozyme activity increase over noninduced control: EROD substrate, hepatocytes induced in vivo, 10 to 15 mg/kg. How it is done:
(§3) Cells were isolated using a modification of the Seglen method which has been described earlier (Seglen, P., Preparation of isolated rat liver cells, In Meth. in Cell. Bio. (D M Prescott, ed.), vol. 13. Academic Press (NY, N.Y.), 1976.). Briefly, the exposed liver was cannulated and perfused in situ with cold Lactated Ringers (Baxter, Deerfield, Ill.) at 250 ml/minute before excision and transport to the lab. The liver was quickly warmed and perfused with 0.2% EDTA at 37° C. This was followed by perfusion of 1 mg/ml collagenase (Life Technologies, Grand Island, N.Y.) at 37° C. until digestion appeared complete (mean digestion 22±4 min). Further digestion was stopped with the addition of cold HBSS (BioWhittaker, Walkersville, Md.) supplemented with 10% NBCS (Hyclone, Logan, Utah). Undigested tissue and gall bladder were excised and the remainder of the tissue passed through 200 and 100 micron stainless steel sieves (Fisher Scientific, Pittsburgh, Pa.). The cell suspension was washed twice and the cell pellet resuspended in culture media. Viability was determined by Trypan blue exclusion and Calcein AM staining (Molecular Probes, Eugene, Oreg.). Hepatocytes derived from the isolation process following in vivo induction show lower viability when compared to control conditions (77% n=7 versus 89% n=40), yet the cells detoxify xenobiotics at a greater rate. Immediately after isolation, 10^6 cells were assayed for total protein with the BCA kit (Pierce Biochemical, Rockford, Ill.).
Cells were plated onto 60 mm tissue culture dishes at a density of 2×10^6 cells per dish (Corning, Corning, N.Y.) in Williams' E media supplemented with 1% NBCS (newborn calf serum), 4.5 g/L glucose, 0.5 U/ml bovine insulin, 7 ng/ml glucagon, 7.5 μg/ml hydrocortisone, 10 mM HEPES (Sigma), 20 ng/ml EGF, […] (Life Technologies), 10 IU/ml penicillin and 10 μg/ml streptomycin (BioWhittaker). Hepatocytes were incubated at 37° C. in humidified 10% CO2. Culture medium was changed on day 1 post-isolation and then every 2-3 days. […]

The subject of data set [4] is CYPIA2. The data set is described as follows: MROD conversion to resorufin by in vivo induced hepatocytes. The arrangement: species or system porcine. The settings on record: for Degree of isozyme activity increase over noninduced control: MROD substrate, hepatocytes induced in vivo, 10 to 15 mg/kg. How it is done: (§4) To measure increased isozyme activity in both in vivo and in vitro induced cultures compared to non-induced controls, both in vivo induced and in vitro induced cultures from Example 1 were incubated with EROD, MROD, PROD or BROD (Molecular Probes) at 5 μM (in Williams' E media without serum and phenol red). Dicumarol (80 μM, Sigma) was included in the incubation to limit cytosolic degradation of the resorufin end product. Samples were analyzed in a Turner 450 fluorometer at 540ex and 585em nm. Resorufin formation was quantified using a standard curve that was linear from 0.5 to 130 nM and data are expressed as net resorufin gain over background fluorescence. In this assay, conversion of the alkoxyresorufins to resorufin corresponds to an increase in fluorescence such that the ratio of fluorescences, or activity, corresponds directly to the level of P450 activity of a particular set of isoenzymes.

For data set [5], the system named is CYPIA2. Nature of the data set: MROD conversion to resorufin by in vitro induced hepatocytes. It counts as cell-based, porcine. The settings on record: in vitro induction 5 μM for 24 hours; two million hepatocytes, day 2 of culture. How it is done: as §1, §2
Data set [6] has as its system CYPIIB1. The data set is described as follows: PROD conversion to resorufin by in vivo induced hepatocytes. Set-up: species or system porcine. The settings on record: for Degree of isozyme activity increase over noninduced control: PROD substrate, hepatocytes induced in vivo. How it is done:
as §3
(§5) Cells were plated onto 60 mm tissue culture dishes at a density of 2×10^6 cells per dish (Corning, Corning, N.Y.) in Williams' E media supplemented with 1% NBCS (newborn calf serum), 4.5 g/L glucose, 0.5 U/ml bovine insulin, 7 ng/ml glucagon, 7.5 μg/ml hydrocortisone, 10 mM HEPES (Sigma), 20 ng/ml EGF, […] (Life Technologies), 10 IU/ml penicillin and 10 μg/ml streptomycin (BioWhittaker). Hepatocytes were incubated at 37° C. in humidified 10% CO2. Culture medium was changed on day 1 post-isolation and then every 2-3 days. Media samples taken at each change were stored for assay of albumin and urea.

Data set [7] has as its system CYPIA1. The data set is described as follows: EROD conversion to resorufin by in vitro induced hepatocytes. Type of data set: cell-based, porcine. How it is done: For comparison, in vitro induced hepatocyte cultures were prepared. Hepatocytes were procured using the method described above but from non-induced pigs and then induced in culture. Cells were plated onto 60 mm tissue culture dishes (Corning, Corning, N.Y.) in Williams' E media supplemented with 1% NBCS (newborn calf serum), 4.5 g/L glucose, 0.5 U/ml bovine insulin, 7 ng/ml glucagon, 7.5 μg/ml hydrocortisone, 10 mM HEPES (Sigma), 20 ng/ml EGF, […] (Life Technologies), 10 IU/ml penicillin and 10 μ/ml streptomycin (BioWhittaker). Experimental conditions were treated with culture medium containing any one of the following: 2 mM phenobarbital (PB; Sigma) for 96 hours, 50 μM β-naphthoflavone (BNF; Sigma) for 24 hours, or 5 μM 3-methlycholanthrene (3-MC; Sigma) for 24 hours.
as §4

Data set [8] concerns CYPIIB2. Nature of the data set: BROD conversion to resorufin by in vivo induced hepatocytes. Set-up: species or system porcine. How it is done:
as §3, §5

The subject of data set [9] is CYPIA2. Nature of the data set: 7-Ethoxycoumarin metabolism by in vivo induced hepatocytes. Set-up: species or system porcine.
The subject of data set [10] is CYPIIB2 and CYPIIB1 isozymes. Nature of the data set: Maintenance of isozyme function four days after plating of in vivo induced hepatocytes. The note with it: in vivo induced with 40 to 80 mg/kg once each day, 4 doses. How it is done: as §4
Data set [11] deals with CYPIIB2. Nature of the data set: BROD conversion to resorufin by in vitro induced hepatocytes. Type of data set: cell-based, porcine. How it is done:
as §1, §2

Data set [12] deals with CYPIA2. Nature of the data set: Lidocaine clearance by in vivo induced hepatocytes. Set-up: species or system porcine. The settings on record: Lidocaine substrate (clearance), 40 to 80 mg/kg.
Protocol: A series of in vivo induction studies utilized various doses and injection regimes ranging from 40 to 80 mg/kg on days −4 to −1 with phenobarbital in PBS; 3-methlycholanthrene (in DMSO or benzene);or, β-naphthoflavone (in DMSO) given at 5 to 15 mg/kg on days −3, −2 and/or −1 prior to surgical removal of the liver. Yorkshire/Hampshire crossbred pigs weighing 8.3±3.0 kg were obtained from E M Parsons (Hadley, Mass.). All injections of induction agents were administered into the peritoneal cavity.
Cells were isolated using a modification of the Seglen method which has been described earlier (Seglen, P., Preparation of isolated rat liver cells, In Meth. in Cell. Bio. (D M Prescott, ed.), vol. 13. Academic Press (NY, N.Y.), 1976.). […] Viability was determined by Trypan blue exclusion and Calcein AM staining (Molecular Probes, Eugene, Oreg.). […]
Lidocaine (Paddock Laboratories Inc., Minneapolis, Minn.) clearance was assayed using a modification of the protocol of Nyberg et al. Pharmacokinetic analysis verifies P450function in in vitro and in vivo application of a bioartificial liver, ASAIO, 39:M252-M256, 1993. […] The reverse phase HPLC was carried out with a flow rate of 1 ml/minute on a Microsorb C8 column (Rainin Instrument Co., Woburn, Mass.) at room temperature and monitored at 214 nm. […]
Where [13] appears, read: three daily injections in vivo, day one of culture, 2x10^6 cells on 60 mm dish.

For the compound `Cc1ccc2cc3c(ccc4ccccc43)c3c2c1CC3` [3-Methylcholanthrene, 3-methylcholanthrene], the “effect on CYPIIB1 (upregulation)” value with CYPIIB1 [1] (in vitro induction) is on record as “not observed”. Also, the “Degree of isozyme activity increase over noninduced control” value (“Degree of isozyme activity increase” for short) with CYPIIB1 [2] (Diazepam substrate (clearance), 10 to 15 mg/kg) is 2 to 10-fold; in the data set with CYPIIB1 [2] (Diazepam substrate (clearance), 10 to 15 mg/kg, listed as 3-methlycholanthrene) it was 2 to 10 fold; in the data set on CYPIA1 [3], 10 to 20-fold; with CYPIA2 [4] it was 2 to 10-fold; in the data set with CYPIIB1 [6] (10 to 15 mg/kg), 2 to 10-fold. In addition, the “increase over noninduced controls” value with CYPIA1 [3] (in vivo induction, EROD) is listed as 24 fold; in the data set on CYPIA2 [4] (in vivo induction, MROD), 7.6 fold. In addition, the “conversion rate relative to control rate” value with CYPIA2 [5] stood at 4 fold; with CYPIA1 [7] (in vitro induction 5 μM for 24 hours, two million hepatocytes, day 2 of culture) it was 18 fold. For the same compound, in the data set with CYPIIB1 [6] (in vivo administration), the “upregulation of CYPIIB1 (PROD)” value is reported as 8.4 fold.
For `O=c1cc(-c2ccccc2)oc2ccc3ccccc3c12` [Beta-Naphthoflavone, beta-naphthoflavone], the “Degree of isozyme activity increase” value in the data set on CYPIA1 [3] and with CYPIA2 [4] was 2 to 10-fold in each case. Further, in the data set with CYPIA1 [7] (in vitro induction 24 hours, 50 μM), the “increase in function over control metabolic conversion of EROD” value came out at 14.8 fold. In addition, the “resorufin formed per minute” value with CYPIA1 [7] (in vitro induction 24 hours, 50 μM, EROD, control 0.27 nM) came out at 4.0 nM.
In the case of `CCC1(c2ccccc2)C(=O)NC(=O)NC1=O` [Phenobarbital, phenobarbital], the “higher rate of PROD metabolism following treatment” value with CYPIIB1 [1] (in vitro induction 96 hours (2 mM), PROD, 3 hours incubation) is 3 fold. Further, the “Degree of isozyme activity increase” value with CYPIIB1 [2] (Diazepam substrate, 40 to 80 mg/kg) is 20 to 50-fold; in the data set with CYPIIB2 [8] (BROD substrate, hepatocytes induced in vivo, 40 to 80 mg/kg), 20 to 100-fold; in the data set with CYPIA2 [9] (7-EC substrate, hepatocytes induced in vivo, 40 to 80 mg/kg) it was 20 to 50-fold; with CYPIIB1 [6] (40 to 80 mg/kg), 2 to 40-fold; with CYPIA2 [12], 10 to 20-fold; in the data set on CYPIA2 [12] (listed as phenobarbital), 10 to 20 fold. Moreover, the “rate of resorufin formation from the BROD substrate” value in the data set on CYPIIB2 [8] (in vivo induction, day 1) is listed as “approximately 10.4 nM resorufin per minute”; in the data set on CYPIIB2 [11] (in vitro induction, day 4), “about 0.33 nM resorufin formed per minute”. Moreover, the “increase in function following in vivo induction” value with CYPIIB2 [8] (setting [13]) was determined as 70 fold. For the same compound, the “rate relative to average control rate of resorufin formed on day 1 from BROD” value in the data set on CYPIIB2 [8] (versus control 0.15 nM per minute) is reported as 69 times. This compound came in with a umbelliferone production rate in the data set with CYPIA2 [9] (in vivo induced, 24 hours after adding 7-ethoxycoumarin, noninduced 2.58±1.9) of 346±41.4 nM per hour. For the same compound, in data set [10], the “reduction of cytochrome P450 activity four days after plating” value is on record as “about 50%”. Besides, the “increase in function over noninduced controls” value in the data set on CYPIIB2 [11] (in vitro induction 96 hours (2 mM), BROD, 3 hours incubation, day 4 of culture) is recorded as 8.4 fold. Also, the “upregulation following in vivo induction” value in the data set with CYPIIB1 [6] (setting [13]) came out at 38 fold.
